Data from patent US10577329B2, “Fused-bicyclic aryl quinolinone derivatives as mutant-isocitrate dehydrogenase inhibitors” (FORMA Therapeutics, Inc., priority 2015, dated 2020).
Read-outs that look alike come from different tables or passages of the source.

Experiments:
[1] = system: HCT116 isogenic IDH1-R132H mutant cells; test: Cellular 2-HG assay using HCT116 mutant IDH1-R132H cells; format: cell-based; conditions: Homo sapiens, read-out: HCT116 IDH1 R132H IC50
Description: (§1) HCT116 isogenic IDH1-R132H and IDH1-R132C mutant cells were cultured in growth media (McCoy's 5A, 10% fetal bovine serum, 1× antibiotic-antimycotic solution and 0.3 mg/mL G418) in 5% CO2 in an incubator at 37° C. To prepare the assay, cells were trypsinized and resuspended in assay media (McCoy's 5A with no L-glutamine, 10% fetal bovine serum, 1× antibiotic-antimycotic solution and 0.3 mg/mL G418). An aliquot of 10,000 cells/100 μL was transferred to each well of a clear 96-well tissue culture plate. The cells were incubated in 5% CO2 at 37° C. in an incubator overnight to allow for proper cell attachment. An aliquot of 50 μL of compound containing assay media were then added to each well and the assay plate was kept in 5% CO2 at 37° C. in an incubator for 24 hours. The media was then removed from each well and 150 μL of a methanol/water mixture (80/20 v/v) was added to each well. The plates were kept at −80° C. freezer overnight to allow for complete cell lysis. An aliquot of 125 μL of extracted supernatant was analyzed by RapidFire high-throughout-mass spectrometry (Agilent) to determine the cellular 2-HG level. The IC50 of a given compound was calculated by fitting the dose response curve of cellular 2-HG inhibition at a given concentration with the four parameter logistic equation

[2] = system: HCT116 isogenic IDH1-R132C mutant cells; test: Cellular 2-HG assay using HCT116 mutant IDH1-R132C cells; format: cell-based; conditions: Homo sapiens, read-out: HCT116 IDH1 R132C IC50
Description: as §1

[3] = biological target: IDH1-R132H recombinant protein (Homo sapiens, UniProt O75874, R132H); test: IDH1-R132H enzymatic assay (NADPH consumption, diaphorase/resazurin readout); format: biochemical; conditions: 30 nM IDH1-R132H, inhibition of NADPH consumption; read-out: Enzyme IDH1 R132H IC50
Description: (§2) Example 34—IDH1-R132H and IDH1-R132C Enzymatic Assay
(§3) Assays were performed in a 384-well black plate. An aliquot of 250 nL of compound was incubated with 10 μL of 30 nM IDH1-R132H or 10 nM IDH1-R132C recombinant protein in assay buffer (50 mM Tris pH=7.5, 150 mM NaCl, 5 mM MgCl2, 0.1% (w/v) Bovine Serum Albumin, and 0.01% Triton X-100) in each well at 25° C. for 15 minutes. After the plate was centrifuged briefly, an aliquot of 10 μL of 2 mM α-ketoglutarate and 20 μM NADPH solution prepared in assay buffer was then added to each well and the reaction was maintained at 25° C. for 45 minutes. An aliquot of 10 μL of diaphorase solution (0.15 U/mL diaphorase and 30 μM Resazurin in assay buffer) was added to each well. The plate was maintained at 25° C. for 15 minutes and then read on a plate reader with excitation and emission wavelengths at 535 nm and 590 nm, respectively. The IC50 of a given compound was calculated by fitting the dose response curve of inhibition of NADPH consumption at a given concentration with the four parameter logistic equation.

[4] = biological target: IDH1-R132C recombinant protein (Homo sapiens, UniProt O75874, R132C); test: IDH1-R132C enzymatic assay (NADPH consumption, diaphorase/resazurin readout); format: biochemical; conditions: 10 nM IDH1-R132C, inhibition of NADPH consumption; read-out: Enzyme IDH1 R132C IC50
Description: as §2, §3

[5] = HCT-116, cellular 2-HG inhibition, 24 hours, RapidFire mass spectrometry

Chain of IDH1-R132C recombinant protein (O75874 whole entry R132C): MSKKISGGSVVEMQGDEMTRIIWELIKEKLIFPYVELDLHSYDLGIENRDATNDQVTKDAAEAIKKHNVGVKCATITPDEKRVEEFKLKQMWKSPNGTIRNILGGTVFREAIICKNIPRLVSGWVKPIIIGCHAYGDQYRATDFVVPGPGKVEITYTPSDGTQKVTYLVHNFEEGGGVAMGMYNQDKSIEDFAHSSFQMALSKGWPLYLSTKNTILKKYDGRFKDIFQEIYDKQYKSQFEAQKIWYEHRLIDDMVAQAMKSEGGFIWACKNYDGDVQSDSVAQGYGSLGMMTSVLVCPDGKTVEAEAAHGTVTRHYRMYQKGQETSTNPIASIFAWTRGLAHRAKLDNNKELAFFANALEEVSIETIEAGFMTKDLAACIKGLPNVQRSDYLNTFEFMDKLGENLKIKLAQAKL
Chain of IDH1-R132H recombinant protein (O75874 whole entry R132H): as the sequence (O75874 whole entry R132C) above, with C132H counted along it

| SMILES | IC50 [1, 5] [nM] | IC50 [2, 5] [nM] | IC50 ([1]; HCT-116, 24 h) [nM] | IC50 ([2]; HCT-116, 24 h) [nM] | IC50 [3] [nM] | IC50 [4] [nM] |
| --- | --- | --- | --- | --- | --- | --- |
| CC(C)Cn1c(=O)oc2cnc(N[C@@H](C)c3cc4cc(Cl)ccc4[nH]c3=O)nc21 [Compound I-55, 6-chloro-3-[(1S)-1-{[3-(2-methylpropyl)-2-oxo-2H,3H-[1,3]oxazolo[4,5-d]pyrimidin-5-yl]amino}ethyl]-1,2-dihydroquinolin-2-one] | 100 to 1000 | 1000 to 10000 |  |  |  |  |
| C[C@H](Nc1ncc2[nH]c(=O)n(C)c2n1)c1cc2cc(Cl)ccc2[nH]c1=O [Compound I-58, 6-chloro-3-[(1S)-1-[(9-methyl-8-oxo-8,9-dihydro-7H-purin-2-yl)amino]ethyl]-1,2-dihydroquinolin-2-one] |  |  | 100 to 1000 | 1000 to 10000 |  |  |
| C[C@H](Nc1ncc2c(n1)N(C)C(=O)OC2)c1cc2cc(Cl)c(OCc3ccccn3)cc2[nH]c1=O [Compound I-48, 6-chloro-3-[(1S)-1-({1-methyl-2-oxo-1H,2H,4H-pyrimido[4,5-d][1,3]oxazin-7-yl}amino)ethyl]-7-(pyridin-2-ylmethoxy)-1,2-dihydroquinolin-2-one] | < 100 | < 100 |  |  |  |  |
| C[C@H](Nc1ncc2c(n1)NC(=O)OC2)c1cc2cc(Cl)ccc2[nH]c1=O [Compound I-49, 6-chloro-3-[(1S)-1-({2-oxo-1H,2H,4H-pyrimido[4,5-d][1,3]oxazin-7-yl}amino)ethyl]-1,2-dihydroquinolin-2-one] | < 100 | 100 to 1000 |  |  |  |  |
| C[C@H](Nc1ncc2cn[nH]c2n1)c1cc2cc(Cl)ccc2[nH]c1=O [Compound I-45, 6-chloro-3-[(1S)-1-({1H-pyrazolo[3,4-d]pyrimidin-6-yl}amino)ethyl]-1,2-dihydroquinolin-2-one] |  |  | 100 to 1000 | 100 to 1000 |  |  |
| C[C@H](Nc1ncc2oc(=O)[nH]c2n1)c1cc2cc(Cl)ccc2[nH]c1=O [Compound I-56, 6-chloro-3-[(1S)-1-({2-oxo-2H,3H-[1,3]oxazolo[4,5-d]pyrimidin-5-yl}amino)ethyl]-1,2-dihydroquinolin-2-one] |  |  | 1000 to 10000 | > 10000 |  |  |
| C[C@H](Nc1ncc2oc(=O)n(C)c2n1)c1cc2cc(Cl)ccc2[nH]c1=O [Compound I-57, 6-chloro-3-[(1S)-1-({3-methyl-2-oxo-2H,3H-[1,3]oxazolo[4,5-d]pyrimidin-5-yl}amino)ethyl]-1,2-dihydroquinolin-2-one] |  |  | 100 to 1000 | 100 to 1000 |  |  |
| C[C@H](Nc1ncc2c(n1)NC(=O)C2)c1cc2cc(Cl)ccc2[nH]c1=O [Compound I-60, 6-chloro-3-[(1S)-1-({6-oxo-5H,6H,7H-pyrrolo[2,3-d]pyrimidin-2-yl}amino)ethyl]-1,2-dihydroquinolin-2-one] | 100 to 1000 | 1000 to 10000 |  |  |  |  |
| COc1cc2[nH]c(=O)c([C@H](C)Nc3ncc4c(n3)N(C)C(=O)OC4)cc2cc1Cl [Compound I-51, 6-chloro-7-methoxy-3-[(1S)-1-({1-methyl-2-oxo-1H,2H,4H-pyrimido[4,5-d][1,3]oxazin-7-yl}amino)ethyl]-1,2-dihydroquinolin-2-one] |  |  | < 100 | < 100 |  |  |
| C[C@H](Nc1ncc2c(n1)N(C)C(=O)OC2)c1cc2cc(Cl)ccc2[nH]c1=O [Compound I-47, 6-chloro-3-[(1S)-1-({1-methyl-2-oxo-1H,2H,4H-pyrimido[4,5-d][1,3]oxazin-7-yl}amino)ethyl]-1,2-dihydroquinolin-2-one] | < 100 | < 100 |  |  |  |  |
| C[C@H](Nc1ncc2c(n1)N(C)C(=O)C2)c1cc2cc(Cl)ccc2[nH]c1=O [Compound I-61, 6-chloro-3-[(1S)-1-({7-methyl-6-oxo-5H,6H,7H-pyrrolo[2,3-d]pyrimidin-2-yl}amino)ethyl]-1,2-dihydroquinolin-2-one] | 100 to 1000 | 100 to 1000 |  |  |  |  |
| COc1cc2[nH]c(=O)c(C(C)Nc3ncc4c(n3)N(C)C(=O)OC4)cc2cc1Cl (racemic) [Compound I-50, 6-chloro-7-methoxy-3-[1-({1-methyl-2-oxo-1H,2H,4H-pyrimido[4,5-d][1,3]oxazin-7-yl}amino)ethyl]-1,2-dihydroquinolin-2-one] |  |  | < 100 | < 100 | < 100 | < 100 |
